Assay results reported in PMC8896804 (Science Advances, 2022).

How the values were obtained:
[1] = system: platytocin receptor (PTR); type: cell-based; details: COS-7 cells transfected with ptr, cotreated with platytocin 90 min at 37°C; global Schild analysis, slope of 1; mean ± SEM, n = 4
S. pusilla = assay: Survival after hyper-osmotic salinity exposure; type: in vivo, Stylochoplana pusilla; details: 10^−6 M OVTA, n = 45, Fig. 3B

With “[d(CH2)5^1, Tyr(Me)^2, Thr^4, Orn^8, Tyr^9-NH2]–vasotocin [OVTA]” the “pA2, block of platytocin-mediated IP1 accumulation” value [1] was 6.99 ± 0.27 and the “hyperosmolality (70 ppt) resistance” value (S. pusilla) was “Hyperosmolality (70 ppt) resistance is blocked by 10^−6 M OVTA”.
